Our source for the TGI values is PubChem BioAssay (NCI).

Holding throughout (test): NCI-60 cell line screen, 48 h
Assay [1] concerns A549 NSCLC.
The test system of assay [2] is BT-549 breast.
Assay [3] has as its system CAKI-1 renal.
The test system of assay [4] is DU-145 prostate.
Assay [5] relates to HCT-15 colon.
Assay [6] concerns HOP-62 NSCLC.
The test system of assay [7] is HS 578T breast.
The subject of assay [8] is K-562 leukemia.
For assay [9], the system named is MALME-3M melanoma.
Assay [10] has as its system MDA-MB-435.
Assay [11] concerns MDA-N.
The test system of assay [12] is NCI-H226 lung.
Assay [13] concerns NCI-H460 lung.
For assay [14], the system named is NCI-H522 lung.
For assay [15], the system named is OVCAR-5 ovarian.
In assay [16] the test system is SF-295 CNS.
The test system of assay [17] is SF-539 CNS.
The subject of assay [18] is SNB-75 CNS.
The test system of assay [19] is T-47D breast.
Assay [20] relates to SR leukemia.

SMILES strings stand for the structures.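 Where inhibition never reached the appropriate level, the endpoint shown equals the highest concentration tested. Otherwise, values were interpolated linearly from a five-concentration, 48-hour dose response in 96-well plates. TGI is the concentration that stops growth completely.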

As to `CCCCCCCCCCCCCCCC(=O)Nc1ccn(C2CCC(COP(=O)(O)OCC3OC(n4cc(F)c(=O)[nH]c4=O)CC3OC(C)=O)O2)c(=O)n1` (stereo not given), the TGI in assay [1] is more than 54.2 µM; in assay [2] it was 58.4 µM; in [3], more than 42.5 µM; in assay [4] it was more than 100 µM; in [5] it was more than 100 µM; in assay [6], 37.7 µM. In addition, the TGI in assay [7] is more than 100 µM; in assay [8], more than 38.2 µM; in assay [9], 53.3 µM; in [10] it was 44.2 µM; in assay [11], 50.4 µM; in [12] it was more than 100 µM. Moreover, the TGI was more than 100 µM in assay [13]; 27.7 µM in assay [14]; more than 74.5 µM in assay [15]; 29.6 µM in assay [16]; more than 23.3 µM in [17]; more than 67.1 µM in assay [18]. The TGI in assay [19] was more than 66.5 µM.

Take `Cc1[nH]c2nc3c(ncn3COCCO)c(=O)n2c1C(c1ccccc1)(c1ccccc1)c1ccccc1`: the TGI in assay [1] was 40.5 µM; in assay [2], 2.22 µM; in assay [3], more than 100 µM; in [4] it was 26.2 µM; in assay [5], more than 100 µM; in assay [6], 44.3 µM. For the same molecule, the TGI is more than 91.2 µM in [7]; 27.3 µM in assay [8]; 33.6 µM in assay [9]; 24.3 µM in assay [10]; 29.2 µM in assay [11]; 30.9 µM in [13]. Also, the TGI in assay [14] turned out to be 28.2 µM; in [15], 32.7 µM; in assay [16], 34.2 µM; in assay [17], 19.2 µM; in assay [18], 26.7 µM; in assay [19], 29.7 µM.

As to `O=C1Nc2ccccc2/C1=C\c1c(-c2ccccc2)nc2n1CCS2`, the TGI in assay [1] is more than 100 µM; in [2], 43.7 µM; in assay [3], more than 100 µM; in assay [4] it was 40.7 µM; in assay [5] it was 52.3 µM; in assay [6] it was more than 100 µM. The TGI is 75.2 µM in assay [7]; more than 100 µM in assay [8]; 74.1 µM in assay [9]; 39.8 µM in [10]; 65 µM in assay [11]; 41.9 µM in assay [13]. Also, the TGI in assay [14] was 51.7 µM; in assay [15] it was 58.5 µM; in [16], 48.6 µM; in assay [17], 39.1 µM; in assay [18], 42.8 µM; in assay [19] it was 76.8 µM.

As to `c1ccc2nn(C3CCCO3)nc2c1` (stereo not given), the TGI in [1], in assay [2], in [3], in assay [4], in [5] and in [6] was more than 100 µM in each case. Further, the TGI in [7], in assay [8], in assay [9], in assay [10], in assay [11] and in [12] was more than 100 µM in each case. Also, the TGI in assay [13], in assay [14], in assay [15], in [16], in assay [17] and in assay [18] was more than 100 µM each time. Besides, in assay [19], the TGI is more than 100 µM.

Regarding `CCN(CC)C(=S)N/N=C/c1cc(OC)ccc1O`, the TGI in assay [1], in assay [2], in [4], in assay [5], in assay [6] and in assay [7] was more than 100 µM throughout. Moreover, the TGI in assay [8] was more than 100 µM; in assay [9] it was more than 100 µM; in [10], more than 100 µM; in assay [11], more than 100 µM; in [12], 25.5 µM; in [13] it was 14.3 µM. Moreover, the TGI in assay [14] is more than 100 µM; in assay [15], more than 100 µM; in assay [16], more than 100 µM; in assay [17], 36 µM; in assay [18], more than 100 µM; in [20] it was 8.9 µM. The molecule also yielded a TGI in assay [19] of more than 100 µM.

With `S=C(Nc1ccc2c(c1)oc1ccccc12)c1cccs1`, the TGI in assay [1], in assay [2], in [3], in assay [4], in [5] and in assay [6] was more than 100 µM in each case. In addition, the TGI in assay [7], in assay [10], in assay [11], in [12], in assay [14] and in [15] was more than 100 µM each time. Moreover, the TGI in [16], in assay [17], in [20] and in assay [19] was more than 100 µM each time.

`CC[C@@H]1CC[C@@H]2[C@H](CC[C@]3(C)[C@@H](OC(C)=O)CC[C@@H]23)[C@H]1C(=O)OC`: the TGI in assay [1] is 70.8 µM; in assay [2], more than 100 µM; in assay [3], more than 100 µM; in assay [4], 86.1 µM; in assay [5], 49.5 µM; in assay [6], 53.7 µM. Also, the TGI is more than 100 µM in assay [7]; 40.1 µM in assay [8]; 33.3 µM in assay [9]; 41.9 µM in assay [10]; 41.4 µM in [11]; 38 µM in assay [12]. Further, the TGI came out at 51.6 µM in assay [13]; 47.8 µM in assay [14]; 59.5 µM in assay [15]; 46.6 µM in assay [16]; 38.3 µM in assay [17]; 69 µM in assay [18]. The same molecule gave a TGI in assay [19] of 66.8 µM.

For `C(=N\NC1=NCCN1)/c1cccc2cc3ccncc3nc12`, the TGI is 20.2 µM in [1]; 29.4 µM in assay [2]; 14.1 µM in [3]; 19.9 µM in [4]; 13.1 µM in [5]; 19.7 µM in [6]. Also, the TGI in [7] is 61.3 µM; in [9], 23.4 µM; in assay [10] it was 10.5 µM; in [11] it was 11 µM; in assay [12], 21.2 µM; in [13] it was 20.5 µM. The TGI in assay [14] was 11.9 µM; in [16], 14.5 µM; in [17], 21.2 µM; in [18], 5.04 µM; in assay [19], 12.7 µM.
